The values that follow come from ChEMBL document CHEMBL1201862, “PubChem BioAssay data set” (2004).

Holding throughout (assay): NCI anticancer screen, dose series, 48 h
In assay [1] the test system is NCI-H23.
Assay [2] deals with SK-OV-3.
Assay [3] relates to SF-295.
Assay [4] relates to RPMI-8226.
Assay [5] concerns IGROV-1.
The subject of assay [6] is U-251.
The subject of assay [7] is SK-MEL-28.
For assay [8], the system named is SF-268.
Assay [9] deals with NCI/ADR-RES.
Assay [10] deals with LOX IMVI.
In assay [11] the test system is SN12C.
In assay [12] the test system is PC-3.
Assay [13] has as its system HOP-92.
In assay [14] the test system is SR.
The test system of assay [15] is MDA-MB-435.
For assay [16], the system named is MOLT-4.
In assay [17] the test system is HOP-62.
In assay [18] the test system is TK-10.
The subject of assay [19] is RXF 393.
The subject of assay [20] is A498.

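Results reflect a 48-hour exposure of cells in 96-well plates to compound at five concentrations. GI50: concentration for 50% inhibition of growth.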 Activity calls are given as the source filed them. Rule as the data show it: active = GI50 up to about 1.1 µM and inactive = higher.

Turning to `Cc1nc2ccc(S(=O)(=O)Nc3ccccc3Cl)cc2c(=O)n1NC(=O)CNc1ccccc1Cl`, the GI50 in assay [1], in assay [2], in [3], in assay [4], in assay [5] and in assay [6] was > 100 µM (inactive) throughout. Further, the GI50 in assay [7], in [8], in assay [9], in assay [10], in assay [11] and in assay [12] was > 100 µM (inactive) each time. Besides, the GI50 in assay [13], in assay [14], in [15], in [16], in assay [17] and in assay [18] was > 100 µM (inactive) throughout.

For `CCn1c(-c2cc(OC)cc(OC)c2)nc2c1C(=O)c1ccccc1C2=O`, the GI50 is > 100 µM (inactive) in assay [1]; 3.9 µM (inactive) in assay [2]; 29.2 µM (inactive) in assay [3]; > 100 µM (inactive) in assay [4]; > 100 µM (inactive) in [5]; > 100 µM (inactive) in [6]. The GI50 in assay [7] is > 100 µM (inactive); in assay [8] it was 65.8 µM (inactive); in assay [9] it was > 100 µM (inactive); in assay [11], > 100 µM (inactive); in assay [12], > 100 µM (inactive); in [13], 60 µM (inactive). In addition, the GI50 was > 100 µM (inactive) in assay [14]; > 100 µM (inactive) in assay [15]; > 100 µM (inactive) in assay [16]; 64.6 µM (inactive) in assay [17]; 13.9 µM (inactive) in assay [19]; > 100 µM (inactive) in [18].

In the case of `COc1ccc(C(OCC2OC3(COC(c4ccccc4)(c4ccc(OC)cc4)c4ccc(OC)cc4)C(Oc4nc(=O)ccn43)C2O)(c2ccccc2)c2ccc(OC)cc2)cc1` (stereo not given), the GI50 in [1] was > 100 µM (inactive); in assay [2], > 100 µM (inactive); in assay [3] it was > 100 µM (inactive); in assay [4] it was 71.1 µM (inactive); in [5], > 100 µM (inactive); in assay [6], > 100 µM (inactive). For the same molecule, the GI50 in [7], in [8], in assay [9], in assay [10], in assay [11] and in assay [12] was > 100 µM (inactive) in each case. In addition, the GI50 in assay [14], in [15], in assay [16], in assay [17], in assay [19] and in assay [18] was > 100 µM (inactive) throughout.

Turning to `Cc1ccc(S(=O)(=O)[N-]C2C(=O)c3ccccc3C(=O)C2[n+]2cccc(C(N)=O)c2)cc1` (stereo not given), the GI50 in assay [1], in [2], in assay [3], in assay [4], in assay [5] and in assay [6] was > 100 µM (inactive) each time. Further, the GI50 was > 100 µM (inactive) in assay [7]; > 100 µM (inactive) in assay [8]; > 100 µM (inactive) in assay [9]; 30.7 µM (inactive) in assay [10]; 30.3 µM (inactive) in assay [11]; > 100 µM (inactive) in assay [12]. In addition, the GI50 in assay [13], in assay [14], in [15], in assay [16], in [17] and in assay [19] was > 100 µM (inactive) throughout. In assay [18], the GI50 was 33.9 µM (inactive).

On to `C=C(C)[C@@H]1CC[C@]2(C(=O)O)CC[C@]3(C)[C@H](CCC4[C@@]5(C)CC[C@H](C(=O)/C=C/c6ccc(O)c(O)c6)C(C)(C)[C@@H]5CC[C@]43C)[C@@H]12` (stereo not given in full), for which the GI50 in assay [1] was 2.61 µM (inactive); in assay [2], 4.42 µM (inactive); in assay [3], 3.75 µM (inactive); in assay [5], 4.24 µM (inactive); in assay [8] it was 5.28 µM (inactive); in assay [9], 5.46 µM (inactive). Besides, the GI50 was 3.34 µM (inactive) in [10]; 5.02 µM (inactive) in [11]; 4.32 µM (inactive) in [12]; 3.4 µM (inactive) in assay [14]; 2.29 µM (inactive) in assay [15]; 2.94 µM (inactive) in assay [16]. Besides, the GI50 is 2.9 µM (inactive) in assay [17], 6 µM (inactive) in assay [19] and 11 µM (inactive) in assay [18].

As to `COC(=O)c1c(C)cc(OC)c(C/C=C(\C)CCCc2coc(C=C(C)C)c2)c1OC`, the GI50 is > 100 µM (inactive) in assay [1]; > 100 µM (inactive) in assay [3]; 99.5 µM (inactive) in [4]; > 100 µM (inactive) in [5]; > 100 µM (inactive) in assay [6]; > 100 µM (inactive) in assay [7]. The GI50 is 1.71 µM (inactive) in assay [8]; > 100 µM (inactive) in assay [9]; > 100 µM (inactive) in assay [10]; > 100 µM (inactive) in [11]; > 100 µM (inactive) in [12]; > 100 µM (inactive) in [13]. Moreover, the GI50 in assay [14] is 7.6 µM (inactive); in assay [15], > 100 µM (inactive); in assay [16] it was 37.4 µM (inactive); in [17], > 100 µM (inactive); in [18], > 100 µM (inactive).

`COc1cc2c[n+](C)c3c4ccccc4ccc3c2cc1OC.COc1cc2cnc3c4ccccc4ccc3c2cc1OC`: the GI50 is 12.2 µM (inactive) in assay [1]; 9.29 µM (inactive) in assay [2]; 19.6 µM (inactive) in [3]; 8.11 µM (inactive) in [4]; 11.8 µM (inactive) in [5]; 3.05 µM (inactive) in assay [6]. The GI50 is 5.5 µM (inactive) in assay [7]; 0.592 µM (active) in assay [8]; 10 µM (inactive) in assay [9]; 11.5 µM (inactive) in assay [10]; 2.84 µM (inactive) in assay [11]; 2.84 µM (inactive) in assay [12]. The GI50 in assay [13] is 10.6 µM (inactive); in assay [14], 4.42 µM (inactive); in assay [15] it was 2.87 µM (inactive); in assay [16], 1.46 µM (inactive); in assay [17], 19.1 µM (inactive); in assay [19], 21.2 µM (inactive). Further, the GI50 in assay [18] was 26.6 µM (inactive).

Regarding `CCOC(=O)C(C(=S)SC)c1nn2c(=O)cc(C)nc2s1` (stereo not given), the GI50 was 20.6 µM (inactive) in assay [1]; 22.9 µM (inactive) in assay [2]; 20.3 µM (inactive) in assay [3]; 19.6 µM (inactive) in assay [4]; 19.6 µM (inactive) in assay [5]; 16 µM (inactive) in assay [6]. In addition, the GI50 was 18.8 µM (inactive) in assay [7]; 17.7 µM (inactive) in assay [8]; 24.3 µM (inactive) in assay [9]; 15.9 µM (inactive) in assay [10]; 16.2 µM (inactive) in assay [11]; 20.9 µM (inactive) in [12]. Further, the GI50 in assay [13] was 21.7 µM (inactive); in assay [14] it was 15.7 µM (inactive); in [15], 18.2 µM (inactive); in assay [16], 19.2 µM (inactive); in assay [17], 22.4 µM (inactive); in assay [19] it was 20.8 µM (inactive). For the same molecule, the GI50 in assay [18] is 35.1 µM (inactive).

As for `c1ccc2c(c1)CCc1c-2n(CCN2CCCCC2)c2ccccc12`, the GI50 is 17.7 µM (inactive) in [1]; 23.7 µM (inactive) in assay [2]; 16.9 µM (inactive) in assay [3]; 10.3 µM (inactive) in [4]; 11.4 µM (inactive) in assay [5]; 14.3 µM (inactive) in [6]. The GI50 in assay [7] is 19.6 µM (inactive); in assay [8], 21.2 µM (inactive); in [9], 16.8 µM (inactive); in assay [10], 15.1 µM (inactive); in assay [11], 17.3 µM (inactive); in assay [12] it was 11.8 µM (inactive). Besides, the GI50 was 16.4 µM (inactive) in [13]; 8.81 µM (inactive) in assay [14]; 25.4 µM (inactive) in assay [15]; 13.9 µM (inactive) in assay [16]; 15.8 µM (inactive) in assay [17]; 19.1 µM (inactive) in [18].

With `CS[C@]12[C@@H]3C(=O)N(C)C(=O)[C@@H]3[C@](C)(C(=O)N1C)C(=O)N2c1ccccc1`, the GI50 in [1], in assay [20], in [2], in assay [3], in assay [4] and in [5] was > 100 µM (inactive) throughout. For the same molecule, the GI50 in [6], in assay [7], in assay [8], in assay [9], in [10] and in [11] was > 100 µM (inactive) each time. The GI50 in assay [12], in [13], in [15], in assay [16], in assay [17] and in [19] was > 100 µM (inactive) in each case. The GI50 in assay [18] was > 100 µM (inactive).

For the molecule `Cc1c(C(=O)C(=O)c2ccccc2)c(C)c(C(=O)C(=O)c2ccccc2)c(C)c1C(=O)C(=O)c1ccccc1`, the GI50 in [2], in [3], in [4], in [5], in assay [6] and in assay [7] was > 100 µM (inactive) throughout. In addition, the GI50 in assay [8], in [9], in assay [11], in assay [12], in assay [14] and in [15] was > 100 µM (inactive) in each case. The GI50 in assay [16], in [17] and in [18] was > 100 µM (inactive) throughout.
